Data on one compound can be found in patent US10220025B1, “Self-emulsifying formulation of CARP-1 functional mimetics” (Florida A&M University, priority 2016, dated 2019).

Structures are written as SMILES. Where two headings read alike, the source gives them in different places.

The test system of assay [1] is Adriamycin-resistant (ADR-R) MDA-MB-468 sublines. The assay can be described thus: MTT viability assay, ADR-resistant MDA-MB-468 sublines. Type of assay: cell-based, human. As to the method:
(§1) Human TNBC MDA-MB-468 and MDA-MB-231, and mouse TNBC 4T1 cells were cultured in the chronic presence (>10 months) of Doxorubicin. The parental, wild-type cells were initially treated with 200 nM Doxorubicin for 2-3 weeks, followed by escalation to 400 nM, 1 μM, and 2 μM doses over a period of 3-4 weeks for each dose till resistance developed and the cells became well adapted to growth in […] of Doxorubicin for their routine culture. In the case of Cisplatin however, the human TNBC MDA-MB-468 and MDA-MB-231 were initially cultured in continuous presence of 1 μM Cisplatin for 3-4 weeks, and the dose was escalated to 1.5 μM and 3 μM over periods of 3-4 weeks for each dose till resistance developed and cells became adapted to routine culture in 3 μM dose. Subsequent, routine maintenance of the resistant cells in the presence of the respective drug was continued and multiple, resistant sublines for each of the TNBC cells were isolated and characterized for their growth inhibitory (GI)50 dose of respective therapeutic by the MTT-based viability assays as below.

The test system of assay [2] is Adriamycin-resistant (ADR-R) 4T1 sublines. The assay can be described thus: MTT viability assay, ADR-resistant 4T1 sublines. The assay is classed as cell-based. The settings on record: Mus musculus; 72 h; ADR-R Clones 1-6.
Method: Human TNBC MDA-MB-468 and MDA-MB-231, and mouse TNBC 4T1 cells were cultured in the chronic presence (>10 months) of Doxorubicin. The parental, wild-type cells were initially treated with 200 nM Doxorubicin for 2-3 weeks, followed by escalation to 400 nM, 1 μM, and 2 μM doses over a period of 3-4 weeks for each dose till resistance developed and the cells became well adapted to growth in 1 μM dose of Doxorubicin for their routine culture. […] Subsequent, routine maintenance of the resistant cells in the presence of the respective drug was continued and multiple, resistant sublines for each of the TNBC cells were isolated and characterized for their growth inhibitory (GI)50 dose of respective therapeutic by the MTT-based viability assays as below.
(§2) In vitro inhibition of cell growth was assessed by MTT (3-[4, 5-dimethyltiazol-2-yl]-2.5-diphenyl tetrazolium bromide) reagent. Cells (5×10^3) were seeded in a 96-well culture plate and subsequently treated with respective agents at different concentrations as mentioned. Control cells were treated with 0.1% DMSO in culture medium. After treatment, the cells were incubated with 1 mg/ml of MTT reagent at 37° C. for 2-4 hours and then MTT was removed and 50 μL of DMSO was added, followed by colorimetric analysis using a multi-label plate reader at 560 nm (Victor3; PerkinElmer, Wellesley, Mass., USA).
Assay [3] concerns MDA-MB-468 TNBC cells, wild type. The assay is described as follows: MTT viability assay, parental MDA-MB-468. The assay is classed as cell-based, human. The settings on record: Homo sapiens, MDA-MB-468; 72 h; Wild type.
Method: as §2
Assay [4] relates to drug-resistant TNBC cells. The assay can be described thus: MTT viability assay, drug-resistant TNBC sublines (not singled out). Type of assay: cell-based. Particulars: read-out: GI50 dose, doxorubicin-resistant TNBC cells. On the procedure:
as §1

Assay [5] deals with Adriamycin-resistant (ADR-R) MDA-MB-231 sublines. The assay is described as follows: MTT viability assay, ADR-resistant MDA-MB-231 sublines. Type of assay: cell-based. The settings on record: Homo sapiens, 72 h, ADR-R Clones 1-6. As to the method: as §1
Assay [6] relates to 4T1 TNBC cells, wild type. The assay is described as follows: MTT viability assay, parental 4T1. The settings on record: Mus musculus; 72 h; Wild type. The assay is classed as cell-based, mouse.
Method: as §2
The test system of assay [7] is MDA-MB-231 TNBC cells, wild type. The assay is described as follows: MTT viability assay, parental MDA-MB-231. The assay is classed as cell-based, human. The settings on record: Homo sapiens, MDA-MB-231; 72 h; Wild type.
Method: as §2
The subject of assay [8] is TNBC cells. The assay is described as follows: MTT viability assay, parental TNBC cells (lines not singled out). The assay is classed as cell-based.
Method: as §2
In assay [9] the test system is CSC-enriched populations from xenografts of parental and ADR-resistant MDA-MB-231 TNBC cells. The assay is described as follows: MTT viability of tumor-derived CSC-enriched cells. Particulars: dose-dependent; FIG. 15C. The assay is classed as cell-based, human. As to the method: The CSC-enriched cells were then treated with ADR, CFM-4.16, or a combination of both for noted dose and time. The cell viabilities were determined by MTT-based assay as in FIGS. 3A-3C, and plotted relative to the MTT values for the respective untreated controls. The histogram columns in panels B and C represent means of three and four independent experiments, respectively; bars, S.E. α, αα, β, ββ, ^*,**,#,##p=<0.03 relative to respective cells treated with ADR+CFM-4.16.
The TNBC cells were obtained from tumors derived from parental and drug-resistant cells or from a two-dimensional culture plate with ˜70-80% confluence. The cells were washed twice in 1×PBS and trypsinized following established protocols. […]
It was next clarified whether and to the extent CFM-4.16 was able to interfere with growth of mammospheres derived from parental and drug-resistant TNBC-cells. […] The growing mammosphere cultures were then exposed to CFM-4.16, and the viabilities of untreated and treated cultures were determined by an MTT-based assay. […]

As for `COc1cccc2c1C(=O)c1c(O)c3c(c(O)c1C2=O)C[C@@](O)(C(=O)CO)C[C@@H]3O[C@H]1C[C@H](N)[C@H](O)[C@H](C)O1` [Adriamycin, Doxorubicin, reference compound], in assay [1] (ADR-resistant MDA-MB-468 vs parental), the “GI50 dose higher than wild-type, parental counterparts” value is at least 500 fold. Moreover, the GI50 in assay [1] (Homo sapiens, MDA-MB-468, 72 h, ADR-R Clones 1-6) is about 10000 nM; in assay [2], over 10000 nM; in assay [3] it was about 20 nM; in [4], at least 10000 nM; in assay [5], over 10000 nM; in assay [6], about 100 nM. Also, the GI50 in assay [7] is under 100 nM; in [8] (72 h treatment period, read-out: GI50 doses, both the parental TNBC cell lines) it was under 100 nM; in [8] (read-out: GI50 dose, parental cells), 20 to 100 nM. Further, the “viabilities of CSC enriched TNBC cells vs untreated” value in [9] was “significant loss of viabilities”.
